Source: patent US6974871B2, “Dequalinium analogs” (priority 2000, dated 2005)
Values joined by “and” are separate entries in the source; they are usually repeats but may differ in a detail not shown here. Identical values can stand only once.

Legend:
Recombinant human PKCα = biological target: T1, Recombinant human PKCα (Homo sapiens, UniProt P17252); assay: Assay of PKCα catalytic activity in vitro; assay type: biochemical; details: for IC50: reversible binding conditions, average of two or more independent experiments (± s.d.), read-out: IC50 (analogue concentration producing 50% inhibition of PKCα activity); for fold stronger inhibitory potency compared with C6-DECA (1a): IC50 ratio versus 1a; for fold stronger inhibitory potency than 1c: IC50 ratio versus 1c (C10-DECA)
T1 construct: purchased PanVera Corp., Madison, Wis
Protocol: Assay of PKCα Catalytic Activity In Vitro
(§1) Recombinant human PKCα (>95% pure) (PanVera Corp., Madison, Wis.) was used for testing DECA analogues in vitro. Total PKCα catalytic activity (36 ng protein) and the indicated concentration of DECA analogue was measured in triplicate in the presence of activating cofactors (10 μg phosphatidylserine, 0.5 mM Ca^2+) by the transfer of ^32P from [γ-^32P]-ATP to the modified pseudosubstrate peptide (RFARKGSLRQKNV), as described elsewhere^1. For assay of partially purified B16 F10 cell lysates (25 μg/assay), PKC activity was taken as the difference in phosphotransferase activity measured in triplicate in the presence and absence of activating cofactors (10 μg phosphatidylserine, 0.5 mM Ca^2+) as previously described^2.

[1] = biological target: pp60src tyrosine protein kinase (Homo sapiens, UniProt P12931); assay: Inhibition of homologous protein kinase pp60src; assay type: biochemical; details: micromolar concentrations
Chain of pp60src tyrosine protein kinase (P12931 whole entry): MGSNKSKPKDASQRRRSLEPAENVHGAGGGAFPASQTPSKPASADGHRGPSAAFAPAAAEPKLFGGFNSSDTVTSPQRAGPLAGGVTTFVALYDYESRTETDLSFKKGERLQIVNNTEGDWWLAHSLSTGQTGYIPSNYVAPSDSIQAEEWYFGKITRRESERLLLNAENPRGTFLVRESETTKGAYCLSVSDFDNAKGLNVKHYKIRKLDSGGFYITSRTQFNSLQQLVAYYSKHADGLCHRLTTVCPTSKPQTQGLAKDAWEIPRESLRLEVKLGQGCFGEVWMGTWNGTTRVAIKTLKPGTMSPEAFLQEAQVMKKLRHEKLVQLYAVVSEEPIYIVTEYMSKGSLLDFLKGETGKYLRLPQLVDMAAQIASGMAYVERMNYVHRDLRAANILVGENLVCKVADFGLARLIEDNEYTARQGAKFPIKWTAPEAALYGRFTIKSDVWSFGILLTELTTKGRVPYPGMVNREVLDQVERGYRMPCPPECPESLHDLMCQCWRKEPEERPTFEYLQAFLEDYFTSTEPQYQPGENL

intracellular PKCα = biological target: T2, intracellular PKCα (Mus musculus, UniProt P20444); assay: Photoinduced inactivation of intracellular PKC activity in melanoma cells (DECA analogue plus longwave UV); assay type: cell-based, murine; details: B16 F10 cells; for inhibition at 0.25 µM: 250 nM, 1 h, plus UV irradiation 5 min
T2 construct: endogenous in cells; host or cells: murine melanoma B16 F10 cells
Protocol: as §1
Inactivation of PKCα in Murine Melanoma Cells with Ultraviolet Radiation and DECA Analogues
Murine melanoma B16 F10 cells were cultured in 15 cm^2 dishes to 75-80% confluence in RPMI medium containing 10% fetal bovine serum, 1% penicillin/streptomycin, and 0.125 μg/ml fungizone. Prior to drug application, cells were washed twice with phosphate buffered saline (PBS) and were restored in serum-free medium containing either DMSO (0.1% v/v) or 250 nM C12-, C14-, or C16-DECA analogue. Monolayers of cells were treated with or without the indicated DECA analogue for 1 h and irradiated for 5-min (1200 μW/cm^2) with a UV lamp (American Ultraviolet Co., Murray Hill, N.J.). Following this treatment, the medium was removed and the cells were washed twice with PBS. Preparation of cell lysates was followed by partial purification by DEAE-Sephacel chromatography, as previously described^2.
(§2) A confluent monolayer of cells was washed twice with PBS and the indicated concentration of DECA analogue was added to the cells in serum-free medium. Cells were treated with or without the drug for 1 h at 37° C., 5% CO2, followed by washing with PBS. In PBS and with the lids off, cells were irradiated with longwave UV light for 5-min (1200 μW/cm^2). […]

[2] = test system: murine melanoma B16 F10 cells; assay: Time-lapse cell motility (scratch wound) assay; assay type: cell-based; details: 250 nM plus UV 5 min
Protocol: To measure cell motility by digital image capture, an Olympus IMT-2 inverted phase contrast microscope (Olympus Microscopes, UK), fitted with a Fujitsu TC2-336P CCD camera (EOS Electronics AV Ltd, Barry, Wales) and surrounded by a perspex temperature-regulated jacket that was adjusted to 37° C. Cells were plated onto 3-cm^2 petri dishes such that a densely confluent monolayer was achieved within 24 or 48 h. Following treatment of cells with C10-DECA and UV, a ‘scratch wound’ was created by drawing a sterile micro-pipette tip along the monolayer using a ruler as a guide. Detached cells were removed by washing twice in growth medium before adding 2 ml fresh medium. […] The chamber was gassed with 10% CO2 in humidified air and was placed onto the stage of the microscope. A regular wound edge was chosen and digital images were collected every 30 min for 8 h onto a Power Mac 7100 using Adobe Premier software. The percentage of the capture window (determined as 726 μm×544 μm) that had been filled in by the movement of cells (normalized to the original wound edge) was determined with Optilab software and plotted against time.
A confluent monolayer of cells was washed twice with PBS and the indicated concentration of DECA analogue was added to the cells in serum-free medium. Cells were treated with or without the drug for 1 h at 37° C., 5% CO2, followed by washing with PBS. […]

[3] = biological target: cAMP-dependent protein kinase (PKA) (Homo sapiens, UniProt P17612); assay: Inhibition of homologous protein kinase PKA; assay type: biochemical; details: micromolar concentrations
[4] = biological target: protein kinase C (PKC) isoforms (e.g., α, β1); details: several isoforms (e.g., α, β1); read-out: IC50 for PKC isoforms in vitro; cited from earlier work
[5] = test system: murine melanoma B16 F10 cells; assay: Cell migration in transwell (Boyden chamber); assay type: cell-based; details: for inhibition of cell migration: 250 nM plus UV 5 min, initial 3 h post-treatment, Boyden chamber
Protocol: A 12-mm Costar transwell (Boyden chamber) having a 12-μm pore size was used to measure cell movement across a porous polycarbonate membrane. The bottom surface was coated with 35 μg Matrigel for 1 h at 37° C., 5% CO2. Cells were seeded into the upper chamber of the transwell at 10^5 cells/well and incubated at 37° C., 5% CO2. Following incubation for 3 h, the upper chamber was carefully wiped with a cotton swab in order to remove cells that remained on the upper membrane surface. Those cells that had migrated to the lower membrane surface were fixed and stained by the H+E Method (Fisher Diagnostics Leukostat). By use of a Nikon Diaphot-TMD inverted microscope at 400× magnification, eight fields of adherent cells were randomly counted in each well and numerically averaged. Each condition was conducted in triplicate and statistical significance was determined by ANOVA using SigmaStat software.
Inhibition of cell migration by 250 nM DECA analogues (C10-(control), C12-, and C14-DECA) was analyzed during the initial 3 h post-treatment by the use of Boyden chambers. Cells that had been treated with a DECA analogue plus UV were applied to the upper surface of the membrane whereupon they moved chemotactically through the membrane, and adhered to Matrigel, which had been coated onto the under surface of the membrane. Following the initial 3 h, the number of cells migrating to this lower surface was measured.
as §2, with “μW/cm^2). Irradiation was carried out with a longwave UV lamp (American Ultraviolet Co., Murray Hill, N.J.) while the plate of cells were subjected to gentle shaking at room temperature. Following this treatment, the medium was removed and the cells were washed twice with PBS.” for “μW/cm^2).”

[6] = test system: calmodulin-dependent myosin light chain kinase; assay: Inhibition of homologous protein kinase MLCK; assay type: biochemical; details: micromolar concentrations
B16F10 cells = assay: Experimental metastasis in mice (B16F10 tail vein injection, pulmonary nodules); assay type: in vivo, C57BL/6 mice; details: 5 mg/kg IP every other day for 2 weeks, versus vehicle
Protocol: In preparation for tail vein injections, mice were tranquilized with 0.2 mg of acepromazine via i.p. injections. B16F10 cells obtained from ex-vivo culture were injected into the tail vein (10^5 cells/0.2 ml). Animals were treated IP with vehicle (0.36% sodium citrate) or 5 mg/kg of C14-DECA on the day of the tail vein injection and every other day thereafter for a 2-3 week experiment. At the end of the experimental period, the mice were sacrificed by CO2 asphyxiation. The lungs were removed and placed in 10% formalin until the metastatic nodules were counted using a dissecting microscope.

Structure (SMILES): Cc1cc(N)c2ccccc2[n+]1CCCCCC[n+]1c(C)cc(N)c2ccccc21 [Compound 1a]
- IC50 (Recombinant human PKCα): 54 µM

Structure (SMILES): Cc1cc(N)c2ccccc2[n+]1CCCCCCCC[n+]1c(C)cc(N)c2ccccc21 [Compound 1b]
- IC50 (Recombinant human PKCα): 25 ± 9 µM

Structure (SMILES): Cc1cc(N)c2ccccc2[n+]1CCCCCCCCCC[n+]1c(C)cc(N)c2ccccc21 [Compound 1c, quinolinium, 1,1′-(1,10-decanediyl)bis(4-amino-2-methyldiiodide)]
- IC50 (Recombinant human PKCα): 11 µM and 11 to 12 µM
- sensitivity of pp60src tyrosine protein kinase to inhibition [1]: insensitive
- inhibition at 0.25 µM (intracellular PKCα): 35%
- loss of cell motility [2]: 33%
- sensitivity of PKA to inhibition [3]: insensitive
- IC50 [4]: 10 to 14 µM
- inhibition of cell migration [5]: 20-30%
- sensitivity of calmodulin-dependent myosin light chain kinase to inhibition [6]: insensitive

Structure (SMILES): Cc1cc(N)c2ccccc2[n+]1CCCCCCCCCCCC[n+]1c(C)cc(N)c2ccccc21 [Compound 1d, 1,1′-(1,12-Dodecanediyl)bis[4-amino-2-methyl]quinolinium, diiodide]
- IC50 (Recombinant human PKCα): 5 ± 2 µM

Structure (SMILES): Cc1cc(N)c2ccccc2[n+]1CCCCCCCCCCCCCC[n+]1c(C)cc(N)c2ccccc21 [Compound 1e, 1,1′-(1,14-Tetradecanediyl)bis[4-amino-2-methyl]quinolinium, diiodide]
- fold stronger inhibitory potency compared with C6-DECA (1a) (Recombinant human PKCα): 20 fold
- fold stronger inhibitory potency than 1c (Recombinant human PKCα): 4 fold
- IC50 (Recombinant human PKCα): 2.6 µM and 2.5 µM
- inhibition of intracellular PKC activity without UV (intracellular PKCα; 250 nM alone, no UV): no inhibitory effect
- inhibition at 0.25 µM (intracellular PKCα): 40 to 60%
- fewer pulmonary nodules (B16F10 cells): 40%
- inhibition of cell migration [5]: 40-60%
- concentration dependence of inhibition of cell migration ([5]; range of 0-500 nM): dose-dependent

Structure (SMILES): Cc1cc(N)c2ccccc2[n+]1CCCCCCCCCCCCCCCC[n+]1c(C)cc(N)c2ccccc21 [Compound 1f, 1,1′-(1,16-Hexadecanediyl)bis[4-amino-2-methyl]quinolinium, diiodide]
- fold stronger inhibitory potency compared with C6-DECA (1a) (Recombinant human PKCα): 20 fold
- fold stronger inhibitory potency than 1c (Recombinant human PKCα): 4 fold
- IC50 (Recombinant human PKCα): 2.6 µM and 2.8 µM

Structure (SMILES): CCCCCCCCCC[n+]1c(C)cc(N)c2ccccc21 [Compound 2, N-Decyl-4-aminoquinaldinium iodide]
- IC50 (Recombinant human PKCα): 117 ± 8 µM

Structure (SMILES): Cc1cc(N)c2ccccc2[n+]1C [Compound 3]
- IC50 (Recombinant human PKCα): 3590 ± 510 µM
